Data published in patent publication US20250388495A1, “WATER SA[…], SYSTEM AND METHOD” (WATERCO LIMITED, priority 2020, published 2025).

Experiments:
[1] = Monitoring of H2O2 and ClO2 levels in the test tank during the efficacy test; assay type: physicochemical
From the text: An apparatus was set up to simulate swimming pool conditions and followed the Australian Pesticides and Veterinary Medicines Authority (APMVA) guidelines. A water tank filled with 180 litres of water recirculates via an ECO 100 pump (Waterco) set at low speed. A Hydrochlor® head unit (Waterco) is connected to a 13-plate low salt cell which is set to run at 100% during the test. A Digiheat unit (Waterco) is set up to control temperature during the tests. A FlowVis® valve (Waterco) was used to estimate flow rate through the apparatus. […] A Kemio™ test kit (Palintest) was used to monitor chlorine dioxide levels. A WDPHRH PER Swimming Pool controller was used to monitor pH and oxidation-reduction potential (ORP) during the tests.

[2] = Field trials: stability of chlorine dioxide in water with hydrogen peroxide; assay type: physicochemical
From the text: For example, field trials indicate that chlorine dioxide will last in water up to 5 times longer when used in conjunction with hydrogen peroxide.
The process allows chlorine dioxide to remain active in water for up to and beyond 5 days.

[3] = produced by electrolysis with hydrogen peroxide present

SMILES | effect of the spike of pathogens on the level of the sanitiser [1] | effect of ultraviolet light on chlorine dioxide residual in the water [2, 3] | time chlorine dioxide remains active in water [2, 3] | effect of agitation on chlorine dioxide levels ([2]; used in conjunction with hydrogen peroxide) | how much longer chlorine dioxide will last in water ([2]; used in conjunction with hydrogen peroxide, field trials)
OO [Hydrogen peroxide] | minimal |  |  |  | 
[O][Cl+][O-] [chlorine dioxide] | dramatically affected | does not diminish | ≥ 5 days | not affected by agitation | up to 5 times longer
